Consider 77 compounds from patent publication US11702417B2, “Compounds for improving mRNA splicing” (The General Hospital Corporation, priority 2015, dated 2023).

This experiment has as its system FD (familial dysautomonia) IKBKAP minigene, exon 20 inclusion, in HEK293T cells. As to the kind of experiment: Primary splicing assay (FD IKBKAP minigene, Firefly/Renilla luciferase reporter in HEK293T). To be noted: for EC (maximum kinetin efficacy) / Emax: Homo sapiens, HEK-293T; for EC (maximum kinetin efficacy): HEK293T, read-out: ECk (compound concentration at which the maximum kinetin efficacy (200 μM) is reached); for ECk, Firefly only: Renilla interference/Firefly only (footnote c). It is filed as cell-based, human.

Setting [1] is: Firefly/Renilla ratio, 24 hours of treatment.
Setting [2] is: max efficacy in Primary Assay, Firefly/Renilla ratio, kinetin and DMSO as positive and negative controls, 24 hours of treatment, read-out: Emax (%).
[3] abbreviates: max efficacy, Firefly only, footnote c: Renilla interference/Firefly only, read-out: Emax (%) Firefly only.

Read-outs that look alike come from different tables or passages of the source.

As for `CCNc1nc2c(NCc3ccco3)nc(Cl)nc2[nH]1` [(243)], the EC (maximum kinetin efficacy) under setting [1] was found to be 17 µM. Besides, under setting [2], the Emax was 120%. Take `Cc1[nH]c2nc(Cl)nc(NCc3ccco3)c2c1Br` [(143)]: the Emax under setting [2] came out at 24%. With `CNOc1nc2c(NCc3ccco3)nc(Cl)nc2[nH]1` [(280)], the maximal effect (Emax) under setting [2] worked out at 25%.

Turning to `FC(F)(F)c1ccccc1Nc1ncnc2[nH]cnc12` [(18)], under setting [2], the Emax was determined as 39%. Take `Clc1nc(NCc2nccs2)c2nc(OCc3ccccc3)[nH]c2n1` [(483)]: the EC (maximum kinetin efficacy) under setting [1] turned out to be 1.26 µM. Also, the Emax under setting [2] turned out to be 138%. `Cc1cccc(CCNc2ncnc3[nH]cnc23)c1` [(25)]: the EC (maximum kinetin efficacy) under setting [1] came to 9.35 µM. Regarding `N#Cc1cc2c(NCc3ccco3)nc(Cl)nc2[nH]1` [(223)], under setting [2], the Emax is 95%.

As to `Clc1nc(NCc2ccncn2)c2nc(C3CC3)[nH]c2n1` [(144)], the EC (maximum kinetin efficacy) under setting [1] was determined as 7.7 µM. Moreover, the Emax under setting [2] amounted to 127%. In the case of `Clc1nc(NCc2nccs2)c2nc(OCC3CCCC3)[nH]c2n1` [(332)], the EC (maximum kinetin efficacy) under setting [1] turned out to be 0.78 µM. For the same compound, the Emax under setting [2] is 189%.

Take `Nc1nc2c(NCc3ccco3)nc(Cl)nc2[nH]1` [(146)]: the EC (maximum kinetin efficacy) under setting [1] worked out at 9.41 µM. In addition, under setting [2], the Emax is 154%. For `Clc1nc(NCc2ccco2)c2nc(OCc3ccccc3)[nH]c2n1` [(490)], in that order: 0.62 µM and 176%. With `Cn1c(=O)[nH]c2nc(Cl)nc(NCc3nccs3)c21` [(470)], the Emax under setting [2] was determined as 76.8%.

With `OCCn1cnc2c(NCc3ccco3)cc(Cl)nc21` [(254)], the EC (maximum kinetin efficacy) under setting [1] was found to be 13.2 µM. Under setting [2], the Emax is 145%. For `O=c1[nH]c2nc(Cl)nc(NCc3nccs3)c2[nH]1` [(377)] the same measures were 7.21 µM and 101%. `CCCCOc1nc2c(NCc3nccs3)nc(Cl)nc2[nH]1` [(318)]: under setting [1], the EC (maximum kinetin efficacy) amounted to 0.54 µM. The Emax under setting [2] turned out to be 186%. With `Clc1nc(NCc2ccco2)c2nc(OCC3CCC3)[nH]c2n1` [(308)], the EC (maximum kinetin efficacy) under setting [1] stood at 0.15 µM. In addition, the Emax under setting [2] was found to be 310%.

As to `OCCn1cc(F)c2c(NCc3ccncn3)nc(Cl)nc21` [(138)], the EC (maximum kinetin efficacy) under setting [1] worked out at 12.8 µM. Under setting [2], the Emax amounted to 174%. In the case of `Clc1nc(NCc2ccco2)c2cc[nH]c2n1` [(55)], under setting [1], the EC (maximum kinetin efficacy) came out at 1.71 µM. The Emax under setting [2] amounted to 173%.

For the compound `c1coc(CNc2ncnc3cc[nH]c23)c1` [(22)], under setting [2], the Emax was 49%. As for `Cc1noc(-c2cc3c(NCc4ccco4)nc(Cl)nc3[nH]2)n1` [(246)], under setting [2], the Emax worked out at 22%. Regarding `CC(Nc1nc(Cl)nc2[nH]cnc12)c1nccs1` (stereo not drawn) [(368)], the Emax under setting [2] was determined as 2.4%. Turning to `COCCOc1nc2c(NCc3ccncc3)nc(Cl)nc2[nH]1` [(290)], the EC (maximum kinetin efficacy) under setting [1] came to 2.04 µM. In addition, the Emax under setting [2] was found to be 238%. Regarding `Clc1cccc(CNc2ncnc3[nH]cnc23)c1` [(415)], under setting [2], the Emax is 10.9%. With `NC(=O)c1nc2c(NCc3ccco3)nc(Cl)nc2[nH]1` [(238)], the EC (maximum kinetin efficacy) under setting [1] was determined as 64.8 µM. Further, the Emax under setting [2] came to 64%. As for `CSc1nc(NCc2nccs2)n2ncnc2n1` [(342)], the Emax under setting [2] turned out to be 16%. For the compound `Cc1[nH]c2nc(Cl)nc(NCc3ccco3)c2c1F` [(159)], under “max efficacy in Primary Assay, value flagged footnote a: Firefly inhibitor, read-out: Emax (%)”, the Emax is 228%. Besides, for the setting “determined by RT-PCR, footnote a Firefly inhibitor, footnote b Renilla interference”, the “ECk (RT-PCR)” value fell in the range of 1 to 10 µM.

For the compound `O=c1cc(CNc2nc(Cl)nc3[nH]cnc23)cc[nH]1` [(255)], the Emax under setting [2] was 42%. On to `COc1nc2c(NCc3cscn3)nc(Cl)nc2[nH]1` [(375)], for which the EC (maximum kinetin efficacy) under setting [1] is 2.18 µM. Also, under setting [2], the Emax came out at 134%. For `CCOc1nc2c(NCc3nccs3)nc(Cl)nc2[nH]1` [(260)], in that order: 3.43 µM and 130%. For `Cc1cc2c(NCc3ccco3)nc(Cl)nc2n1CCO` [(154)], in that order: 22.2 µM and 151%. On to `CNCCn1ccc2c(NCc3ccco3)nc(Cl)nc21` [(213)], for which the maximal response (Emax) under setting [2] was found to be 36%. For the compound `Cn1cnc2c(NCc3nccs3)nc(Cl)nc21` [(301)], under setting [2], the Emax came to 45%. As to `COc1nc2c(N(C)Cc3nccs3)nc(Cl)nc2[nH]1` [(351)], under setting [2], the Emax was determined as 22%. Turning to `Fc1c[nH]c2nc(Cl)nc(NCc3ccncn3)c12` [(112)], the “ECk, Firefly only” value is 5.33 µM⁻¹. The Emax under setting [3] was 111%. As to `CC(C)Oc1nc2c(NCc3ccncc3)nc(Cl)nc2[nH]1` [(277)], the EC (maximum kinetin efficacy) under setting [1] worked out at 0.46 µM. The Emax under setting [2] is 197%. For `Fc1cnccc1CNc1nc(Cl)nc2[nH]ccc12` [(226)] the same measures were 1.8 µM and 191%. For `CN(C)c1nc2c(NCc3ccco3)nc(Cl)nc2[nH]1` [(118)], in that order: 10.5 µM and 112%.

As for `FC(F)(F)c1cccc(CCNc2ncnc3[nH]cnc23)c1` [(5)], under setting [1], the EC (maximum kinetin efficacy) was found to be 63.5 µM. With `COc1cc(CNc2nc(Cl)nc3[nH]ccc23)ccn1` [(237)], under setting [2], the Emax was found to be 21%. Take `COc1nc2c(N(CCO)Cc3nccs3)nc(Cl)nc2[nH]1` [(386)]: the Emax under setting [2] came to 69.2%. As for `CNc1nc2c(NCc3ccncn3)nc(Cl)nc2[nH]1` [(247)], the EC (maximum kinetin efficacy) under setting [1] came to 5.41 µM. Besides, the Emax under setting [2] was 215%.

In the case of `Fc1cccc(CNc2nc(Cl)nc3[nH]ccc23)n1` [(494)], under setting [2], the Emax stood at 14.1%. As for `Clc1nc(NCc2nccs2)c2nc(C3CC3)[nH]c2n1` [(142)], the EC (maximum kinetin efficacy) under setting [1] amounted to 16.1 µM. For the same compound, the Emax under setting [2] worked out at 121%.

Turning to `COc1nc(NCc2ccco2)c2nc(OC)[nH]c2n1` [(365)], under setting [2], the Emax was found to be 22.4%. Same read-out and setting: under `c1c[nH]c(CNc2ncnc3[nH]cnc23)n1` [(6)] stands 21%.

Regarding `Cc1cn(CCO)c2nc(Cl)nc(NCc3ccco3)c12` [(105)], the “ECk, Firefly only” value turned out to be 10.36 µM⁻¹. The Emax under setting [3] amounted to 134%. Take `Clc1nc(NCc2cncs2)c2nc[nH]c2n1` [(378)]: under setting [2], the Emax worked out at 31.8%. The same measure, in the same setting: under `Clc1ccccc1CNc1[nH]cnc2ncnc1-2` [(426)] stands 59%.

With `CC(Nc1nc(Cl)nc2[nH]cnc12)c1ccncc1` (stereo not drawn) [(366)], the Emax under setting [2] was 19.2%.

Turning to `CC(C)(C)OC(=O)N1CC(COc2nc3c(NCc4nccs4)nc(Cl)nc3[nH]2)C1` [(471)], the EC (maximum kinetin efficacy) under setting [1] worked out at 1.63 µM. For the same compound, under setting [2], the Emax is 149%. Turning to `Cn1cccc1CNc1nc(Cl)nc2[nH]ccc12` [(360)], the Emax under setting [2] amounted to 12.3%. `Fc1cccc(CCNc2ncnc3[nH]cnc23)c1` [(28)]: the EC (maximum kinetin efficacy) under setting [1] was 123 µM. Besides, the Emax under setting [2] was determined as 98%.

With `Cc1c[nH]c2nc(Cl)nc(NCc3ccncc3)c12` [(120)], the EC (maximum kinetin efficacy) under setting [1] was 2.75 µM. In addition, the Emax under setting [2] worked out at 166%. For `OCCn1ccc2c(NCc3ccncn3)nc(Cl)nc21` [(127)] the same measures were 5.45 µM and 264%. On to `Clc1cc(NCc2ccco2)n2ccnc2n1` [(288)], for which the Emax under setting [2] was found to be 56%. In the case of `Clc1nc(NCc2cc3ccccc3o2)c2cc[nH]c2n1` [(163)], the maximal response (Emax) under setting [2] was found to be 35%. Regarding `N#Cc1c[nH]c2nc(Cl)nc(NCc3ccncn3)c12` [(152)], the Emax under setting [2] was determined as 35%. For the compound `COc1cccc(Nc2ncnc3[nH]cnc23)c1` [(49)], under setting [1], the EC (maximum kinetin efficacy) was found to be 42.5 µM. With `Cc1cn(CCO)c2nc(Cl)nc(NCc3ccncn3)c12` [(128)], the EC (maximum kinetin efficacy) under setting [1] came out at 15.4 µM. In addition, the Emax under setting [2] was determined as 155%. For the compound `COc1nc2c(NCc3cnccn3)nc(Cl)nc2[nH]1` [(374)], the Emax under setting [2] came out at 34.2%.

As to `Clc1nc(NCc2cccnn2)c2cc[nH]c2n1` [(174)], under setting [2], the Emax stood at 37%.

For `CCOc1nc2c(NCc3ccco3)nc(Cl)nc2[nH]1` [(233)], the EC (maximum kinetin efficacy) under setting [1] stood at 1.59 µM. In addition, the Emax under setting [2] is 152%. For `FCCn1ccc2c(NCc3nccs3)nc(Cl)nc21` [(192)], in that order: 7.13 µM and 210%.

As for `CCOc1nc2c(NCc3ccncc3)nc(Cl)nc2[nH]1` [(273)], the EC (maximum kinetin efficacy) under setting [1] was determined as 0.62 µM. Besides, the maximal effect (Emax) under setting [2] stood at 254%. Turning to `CC(Nc1nc(Cl)nc2[nH]ccc12)c1ccncc1` (stereo not drawn) [(359)], the Emax under setting [2] turned out to be 31.5%. Regarding `N#Cc1nc2c(NCc3ccco3)nc(Cl)nc2[nH]1` [(162)], under setting [1], the EC (maximum kinetin efficacy) stood at 48.7 µM. In addition, under setting [2], the Emax stood at 103%. For `OCc1cc2c(NCc3ccco3)nc(Cl)nc2[nH]1` [(170)], in that order: 49.5 µM and 92%. For `Clc1nc(NCc2ccncc2)c2nc(OCC3CCCC3)[nH]c2n1` [(334)], in that order: 0.87 µM and 177%. Turning to `CN(C)Cc1c[nH]c2nc(Cl)nc(NCc3ccco3)c12` [(180)], under setting [2], the Emax worked out at 28%. The same measure, in the same setting: under `O=C(NCCO)c1cc2c(NCc3ccco3)nc(Cl)nc2[nH]1` [(221)] stands 86%; under `CN(Cc1nccs1)c1nc(Cl)nc2[nH]ccc12` [(363)], 53.2%. Regarding `COCCCOc1nc2c(NCc3ccncc3)nc(Cl)nc2[nH]1` [(291)], the EC (maximum kinetin efficacy) under setting [1] stood at 3.47 µM. The Emax under setting [2] was 165%. For `c1csc(CNc2[nH]cnc3ncnc2-3)c1` [(438)], the maximal response (Emax) under setting [2] amounted to 44%.

As to `Clc1nc(NCc2ccnc3ccccc23)c2cc[nH]c2n1` [(186)], the Emax under setting [2] turned out to be 17%. As for `Clc1nc(NCc2nccs2)c2nc(OCc3ncco3)[nH]c2n1` [(505)], under setting [1], the EC (maximum kinetin efficacy) was 8.07 µM. Also, under setting [2], the Emax stood at 140%. For `CC#CCOc1nc2c(NCc3ccco3)nc(Cl)nc2[nH]1` [(486)], in that order: 2.57 µM and 150%. On to `Clc1nc(NCc2ccco2)c2nc(OC3CCC3)[nH]c2n1` [(259)], for which the EC (maximum kinetin efficacy) under setting [1] is 0.38 µM. Further, the Emax under setting [2] stood at 109%.
